From PubChem BioAssay (NCI)
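Protocol summary: plate cells (96-well), add compound at 5 concentrations, incubate 48 h, interpolate endpoints linearly. TGI: total growth inhibition.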

Tests used:
Assay in all cases: NCI-60 cell line screen, 48 h
HL-60(TB) leukemia = test system: HL-60(TB) leukemia
M14 melanoma = test system: M14 melanoma
NCI-H226 lung = test system: NCI-H226 lung
OVCAR-5 ovarian = test system: OVCAR-5 ovarian
LXFL 529 NSCLC = test system: LXFL 529 NSCLC
U251 CNS = test system: U251 CNS
KM20L2 colon = test system: KM20L2 colon
OVCAR-4 ovarian = test system: OVCAR-4 ovarian
SK-MEL-2 melanoma = test system: SK-MEL-2 melanoma
UO-31 renal = test system: UO-31 renal
CCRF-CEM leukemia = test system: CCRF-CEM leukemia
HT29 colon = test system: HT29 colon
SF-539 CNS = test system: SF-539 CNS
NCI-H522 lung = test system: NCI-H522 lung
SF-268 CNS = test system: SF-268 CNS
EKVX NSCLC = test system: EKVX NSCLC
SNB-78 CNS = test system: SNB-78 CNS
HCT-15 colon = test system: HCT-15 colon
OVCAR-8 ovarian = test system: OVCAR-8 ovarian
SW-620 colon = test system: SW-620 colon
RXF 393 renal = test system: RXF 393 renal
TK-10 renal = test system: TK-10 renal
DLD-1 colon = test system: DLD-1 colon
SN12C renal = test system: SN12C renal
DMS 114 small cell lung = test system: DMS 114 small cell lung
SK-MEL-28 melanoma = test system: SK-MEL-28 melanoma
OVCAR-3 ovarian = test system: OVCAR-3 ovarian
COLO 205 colon = test system: COLO 205 colon
UACC-62 melanoma = test system: UACC-62 melanoma
CAKI-1 renal = test system: CAKI-1 renal
HCC-2998 colon = test system: HCC-2998 colon
KM12 colon = test system: KM12 colon
HOP-62 NSCLC = test system: HOP-62 NSCLC
A498 renal = test system: A498 renal
HOP-92 NSCLC = test system: HOP-92 NSCLC
LOX IMVI melanoma = test system: LOX IMVI melanoma
M19-MEL melanoma = test system: M19-MEL melanoma
SF-295 CNS = test system: SF-295 CNS
MOLT-4 leukemia = test system: MOLT-4 leukemia
SR leukemia = test system: SR leukemia
SNB-75 CNS = test system: SNB-75 CNS
UACC-257 melanoma = test system: UACC-257 melanoma
A549 NSCLC = test system: A549 NSCLC
MALME-3M melanoma = test system: MALME-3M melanoma
IGROV1 ovarian = test system: IGROV1 ovarian
HCT-116 colon = test system: HCT-116 colon
NCI-H460 lung = test system: NCI-H460 lung
HOP-18 NSCLC = test system: HOP-18 NSCLC
SK-OV-3 ovarian = test system: SK-OV-3 ovarian
DMS 273 small cell lung = test system: DMS 273 small cell lung
ACHN renal = test system: ACHN renal
NCI-H23 lung = test system: NCI-H23 lung
786-0 renal = test system: 786-0 renal
SNB-19 CNS = test system: SNB-19 CNS
K-562 leukemia = test system: K-562 leukemia
SK-MEL-5 melanoma = test system: SK-MEL-5 melanoma
RPMI-8226 leukemia = test system: RPMI-8226 leukemia

Measured: TGI

C[C@@H](O)CCC(=O)c1ccoc1
> 100 µM: all assays above
